Experimental data taken from publication PMC7497630, “Coibamide A Targets Sec61 to Prevent Biogenesis of Secretory and Membrane Proteins” (ACS Chemical Biology, 2020).

Key:
HCT-116 = details: published NCI60 panel data, ref 1 (Coibamide A), 2 (Apratoxin A), 3 (Ipomoeassin F); cited from earlier work
UACC-257 = details: published NCI60 panel data, ref 1 (Coibamide A), 2 (Apratoxin A), 3 (Ipomoeassin F); cited from earlier work
NCI-H522 = details: published NCI60 panel data, ref 1 (Coibamide A), 2 (Apratoxin A), 3 (Ipomoeassin F); cited from earlier work
K-562 = details: published NCI60 panel data, ref 1 (Coibamide A), 2 (Apratoxin A), 3 (Ipomoeassin F); cited from earlier work
SK-MEL-2 = details: published NCI60 panel data, ref 1 (Coibamide A), 2 (Apratoxin A), 3 (Ipomoeassin F); cited from earlier work
RXF 393 = details: published NCI60 panel data, ref 1 (Coibamide A), 2 (Apratoxin A), 3 (Ipomoeassin F); cited from earlier work
NCI-H226 = details: published NCI60 panel data, ref 1 (Coibamide A), 2 (Apratoxin A), 3 (Ipomoeassin F); cited from earlier work
HOP-92 = details: published NCI60 panel data, ref 1 (Coibamide A), 2 (Apratoxin A), 3 (Ipomoeassin F); cited from earlier work
OVCAR5 = details: published NCI60 panel data, ref 1 (Coibamide A), 2 (Apratoxin A), 3 (Ipomoeassin F); cited from earlier work
MOLT-4 = details: published NCI60 panel data, ref 1 (Coibamide A), 2 (Apratoxin A), 3 (Ipomoeassin F); cited from earlier work
SF-268 = details: published NCI60 panel data, ref 1 (Coibamide A), 2 (Apratoxin A), 3 (Ipomoeassin F); cited from earlier work
SNB-75 = details: published NCI60 panel data, ref 1 (Coibamide A), 2 (Apratoxin A), 3 (Ipomoeassin F); cited from earlier work
HS 578T = details: published NCI60 panel data, ref 1 (Coibamide A), 2 (Apratoxin A), 3 (Ipomoeassin F); cited from earlier work
LOX IMVI = details: published NCI60 panel data, ref 1 (Coibamide A), 2 (Apratoxin A), 3 (Ipomoeassin F); cited from earlier work
CCRF-CEM = details: published NCI60 panel data, ref 1 (Coibamide A), 2 (Apratoxin A), 3 (Ipomoeassin F); cited from earlier work
SK-MEL-28 = details: published NCI60 panel data, ref 1 (Coibamide A), 2 (Apratoxin A), 3 (Ipomoeassin F); cited from earlier work
A549/ATCC = details: published NCI60 panel data, ref 1 (Coibamide A), 2 (Apratoxin A), 3 (Ipomoeassin F); cited from earlier work
DU-145 = details: published NCI60 panel data, ref 1 (Coibamide A), 2 (Apratoxin A), 3 (Ipomoeassin F); cited from earlier work
PC-3 = details: published NCI60 panel data, ref 1 (Coibamide A), 2 (Apratoxin A), 3 (Ipomoeassin F); cited from earlier work
IGROV1 = details: published NCI60 panel data, ref 1 (Coibamide A), 2 (Apratoxin A), 3 (Ipomoeassin F); cited from earlier work
HCT-15 = details: published NCI60 panel data, ref 1 (Coibamide A), 2 (Apratoxin A), 3 (Ipomoeassin F); cited from earlier work
HT29 = details: published NCI60 panel data, ref 1 (Coibamide A), 2 (Apratoxin A), 3 (Ipomoeassin F); cited from earlier work
SF-539 = details: published NCI60 panel data, ref 1 (Coibamide A), 2 (Apratoxin A), 3 (Ipomoeassin F); cited from earlier work
SW-620 = details: published NCI60 panel data, ref 1 (Coibamide A), 2 (Apratoxin A), 3 (Ipomoeassin F); cited from earlier work
OVCAR8 = details: published NCI60 panel data, ref 1 (Coibamide A), 2 (Apratoxin A), 3 (Ipomoeassin F); cited from earlier work
COLO 205 = details: published NCI60 panel data, ref 1 (Coibamide A), 2 (Apratoxin A), 3 (Ipomoeassin F); cited from earlier work
NCI-H322M = details: published NCI60 panel data, ref 1 (Coibamide A), 2 (Apratoxin A), 3 (Ipomoeassin F); cited from earlier work
786-0 = details: published NCI60 panel data, ref 1 (Coibamide A), 2 (Apratoxin A), 3 (Ipomoeassin F); cited from earlier work
U251 = details: published NCI60 panel data, ref 1 (Coibamide A), 2 (Apratoxin A), 3 (Ipomoeassin F); cited from earlier work
KM12 = details: published NCI60 panel data, ref 1 (Coibamide A), 2 (Apratoxin A), 3 (Ipomoeassin F); cited from earlier work
SF-295 = details: published NCI60 panel data, ref 1 (Coibamide A), 2 (Apratoxin A), 3 (Ipomoeassin F); cited from earlier work
UACC-62 = details: published NCI60 panel data, ref 1 (Coibamide A), 2 (Apratoxin A), 3 (Ipomoeassin F); cited from earlier work
NCI/ADR-RES = details: published NCI60 panel data, ref 1 (Coibamide A), 2 (Apratoxin A), 3 (Ipomoeassin F); cited from earlier work
OVCAR3 = details: published NCI60 panel data, ref 1 (Coibamide A), 2 (Apratoxin A), 3 (Ipomoeassin F); cited from earlier work
SK-OV-3 = details: published NCI60 panel data, ref 1 (Coibamide A), 2 (Apratoxin A), 3 (Ipomoeassin F); cited from earlier work
SN12C = details: published NCI60 panel data, ref 1 (Coibamide A), 2 (Apratoxin A), 3 (Ipomoeassin F); cited from earlier work
SR = details: published NCI60 panel data, ref 1 (Coibamide A), 2 (Apratoxin A), 3 (Ipomoeassin F); cited from earlier work
RPMI-8226 = details: published NCI60 panel data, ref 1 (Coibamide A), 2 (Apratoxin A), 3 (Ipomoeassin F); cited from earlier work
MALME-3M = details: published NCI60 panel data, ref 1 (Coibamide A), 2 (Apratoxin A), 3 (Ipomoeassin F); cited from earlier work
A498 = details: published NCI60 panel data, ref 1 (Coibamide A), 2 (Apratoxin A), 3 (Ipomoeassin F); cited from earlier work
HCC-2998 = details: published NCI60 panel data, ref 1 (Coibamide A), 2 (Apratoxin A), 3 (Ipomoeassin F); cited from earlier work
HL-60 (TB) = details: published NCI60 panel data; cited from earlier work
T-47D = details: published NCI60 panel data, ref 1 (Coibamide A), 2 (Apratoxin A), 3 (Ipomoeassin F); cited from earlier work
SNB-19 = details: published NCI60 panel data, ref 1 (Coibamide A), 2 (Apratoxin A), 3 (Ipomoeassin F); cited from earlier work
OVCAR4 = details: published NCI60 panel data, ref 1 (Coibamide A), 2 (Apratoxin A), 3 (Ipomoeassin F); cited from earlier work
SK-MEL-5 = details: published NCI60 panel data, ref 1 (Coibamide A), 2 (Apratoxin A), 3 (Ipomoeassin F); cited from earlier work
EKVX = details: published NCI60 panel data, ref 1 (Coibamide A), 2 (Apratoxin A), 3 (Ipomoeassin F); cited from earlier work
M14 = details: published NCI60 panel data, ref 1 (Coibamide A), 2 (Apratoxin A), 3 (Ipomoeassin F); cited from earlier work
MDA-MB-435 = details: published NCI60 panel data, ref 1 (Coibamide A), 2 (Apratoxin A), 3 (Ipomoeassin F); cited from earlier work
HOP-62 = details: published NCI60 panel data, ref 1 (Coibamide A), 2 (Apratoxin A), 3 (Ipomoeassin F); cited from earlier work
UO-31 = details: published NCI60 panel data, ref 1 (Coibamide A), 2 (Apratoxin A), 3 (Ipomoeassin F); cited from earlier work
MCF7 = details: published NCI60 panel data, ref 1 (Coibamide A), 2 (Apratoxin A), 3 (Ipomoeassin F); cited from earlier work
TK-10 = details: published NCI60 panel data, ref 1 (Coibamide A), 2 (Apratoxin A), 3 (Ipomoeassin F); cited from earlier work
MDA-MB-231/ATCC = details: published NCI60 panel data, ref 1 (Coibamide A), 2 (Apratoxin A), 3 (Ipomoeassin F); cited from earlier work
NCI-H23 = details: published NCI60 panel data, ref 1 (Coibamide A), 2 (Apratoxin A), 3 (Ipomoeassin F); cited from earlier work
BT-549 = details: published NCI60 panel data, ref 1 (Coibamide A), 2 (Apratoxin A), 3 (Ipomoeassin F); cited from earlier work
NCI-H460 = details: published NCI60 panel data, ref 1 (Coibamide A), 2 (Apratoxin A), 3 (Ipomoeassin F); cited from earlier work
Sec61α = experiment: Photoaffinity labeling competition in sheep rough microsomes; type: binding; details: SRM with 100 nM Sec61, 30 min with competitor, then 100 nM photo-CbA, UV 10 min, TAMRA in-gel fluorescence
Method: Figure 2 Photo-cross-linking of photo-CbA to Sec61α and CbA stabilization of Sec61 in cells. Photocotransin (CT7) or photocoibamide (pCbA) cross-linking to cells or sheep rough microsomes (SRM). Samples were photolyzed and the covalent adduct detected by click-chemistry to TAMRA-azide reporter and in-gel fluorescence scanning and Western blotting. (A) A431 cell lines were first incubated with CbA or carrier, followed by incubation with photo-CbA, photolysis, and click chemistry. Following SDS PAGE, lysates were queried for in gel fluorescence and subsequently transferred for anti-Sec61α and anti-FLAG Western Blot. Arrows indicate Sec61 (with or without a 10 kDa insert), star indicates nonspecific WB signal, triangle indicates free TAMRA dye within the gel. (B) As in A but in SRMs. […] Heat-treated cell suspensions were snap frozen, lysates cleared by centrifugation, and the soluble fraction analyzed by SDS-PAGE and Western blotting. […] (F) Quantification of immunoblot data shown in E. Sec61α band intensity was normalized to tubulin, and data points were fitted using nonlinear regression analysis.
The photoaffinity labeling and click chemistry with microsomes were done as previously described.[17] […] The labeled proteins were analyzed by SDS-PAGE and in-gel fluorescence. […]

C/C=C(\C)C(=O)O[C@@H]1[C@@H](O)[C@@H]2O[C@H]3[C@H](O[C@@H](CCCCC)CCCCCCC(=O)CCC(=O)OC[C@@H](O2)[C@H]1OC(=O)/C=C/c1ccccc1)O[C@H](C)[C@H](OC(C)=O)[C@@H]3O [IpoF, ipomoeassin F]
GI50 (HCT-116): 0.01 µM | GI50 (UACC-257): 0.0119 µM | GI50 (NCI-H522): 0.0279 µM | GI50 (K-562): 0.01 µM | GI50 (SK-MEL-2): 0.445 µM | GI50 (RXF 393): 0.01 µM | GI50 (NCI-H226): 0.276 µM | GI50 (HOP-92): 0.01 µM | GI50 (OVCAR5): 1.23 µM | GI50 (MOLT-4): 3.42 µM | GI50 (SF-268): 0.115 µM | GI50 (SNB-75): 0.01 µM | GI50 (HS 578T): 0.01 µM | GI50 (LOX IMVI): 0.01 µM | GI50 (CCRF-CEM): 0.741 µM | GI50 (SK-MEL-28): 0.0175 µM | GI50 (A549/ATCC): 0.01 µM | GI50 (DU-145): 0.0319 µM | GI50 (PC-3): 0.01 µM | GI50 (IGROV1): 0.0267 µM | GI50 (HCT-15): 0.0298 µM | GI50 (HT29): 0.01 µM | GI50 (SF-539): 0.01 µM | GI50 (SW-620): 0.01 µM | GI50 (OVCAR8): 0.117 µM | GI50 (COLO 205): 0.01 µM | GI50 (NCI-H322M): 0.391 µM | GI50 (786-0): 0.0301 µM | GI50 (U251): 0.01 µM | GI50 (KM12): 0.01 µM | GI50 (SF-295): 0.01 µM | GI50 (UACC-62): 0.0153 µM | GI50 (NCI/ADR-RES): 0.297 µM | GI50 (OVCAR3): 0.0283 µM | GI50 (SK-OV-3): 0.0384 µM | GI50 (SN12C): 0.01 µM | GI50 (SR): 0.0144 µM | GI50 (RPMI-8226): 0.01 µM | GI50 (MALME-3M): 0.0578 µM | GI50 (A498): 0.315 µM | GI50 (HCC-2998): 1.18 µM | GI50 (HL-60 (TB)): 0.049 µM | GI50 (T-47D): 0.01 µM | GI50 (SNB-19): 0.129 µM | GI50 (OVCAR4): 1.58 µM | GI50 (SK-MEL-5): 0.01 µM | GI50 (EKVX): 0.01 µM | GI50 (M14): 0.01 µM | GI50 (MDA-MB-435): 0.01 µM | GI50 (HOP-62): 0.01 µM | GI50 (UO-31): 0.01 µM | GI50 (MCF7): 0.01 µM | GI50 (TK-10): 0.0152 µM | GI50 (MDA-MB-231/ATCC): 0.01 µM | GI50 (NCI-H23): 0.213 µM | GI50 (BT-549): 0.0179 µM | GI50 (NCI-H460): 0.01 µM

CC(=C\C=C\C(C)=C\[C@H](O)[C@@H](O)C[C@H](C)O)/C=C(C)/C=C/C(=O)O[C@H]1CCCC(=O)O[C@@H]([C@@H](C)C/C(C)=C/[C@@H](C)[C@H](O)C[C@@H](C)O)C/C=C(\C)C[C@@H]1C [mycolactone]
competition of photo-CbA cross-linking to Sec61α (Sec61α): prevented photo-CbA cross-linking in a concentration-dependent manner
